Experimental data published in patent US12441751B2, “Metabolic labeling and molecular enhancement of biological materials using bioorthogonal reactions” (priority 2016, dated 2025).
“Also recorded” adds a separate entry of the source.

How the values were obtained:
[1] = test system: decellularized rat lung scaffolds; assay: In vivo metabolic labeling of rat lung ECM with azide-labeled sugars
Description: All animal experiments were approved by the Massachusetts General Hospital Institutional Animal Care and Use Committee and performed in compliance with the Animal Welfare Act. Male Sprague-Dawley rats (100-125 g, Charles River Laboratories) was administered with metabolic labeling reagents (Ac4GalNAz, Ac4GlcNAz or Ac4ManNAz) (30 mg/day, Click Chemistry Tools) via intraperitoneal injection daily for three days. […] Decellularized organ and tissue scaffolds were washed sequentially with distilled water, 1% Triton X and PBS.
(§1) All samples were fixed with 4% paraformaldehyde (Boston BioProducts), paraffin-embedded, and sectioned at 5-μm thickness. Following deparaffinization, rehydration and antigen retrieval using Antigen Unmasking Solution (Vector Laboratories), the sections were processed for either on-section click reaction or regular histological staining. For on-section click reaction, sections of acellular organ scaffolds derived from in vivo or ex vivo metabolic engineering were incubated with Biotin-Alkyne click reaction mix, with and without copper (II) sulfate, for 1 hour at room temperature, followed by extensive washing with PBS. For regular histological staining of biotin and Laminin, the sections were incubated with Rabbit-anti-Laminin antibody (Abcam, ab11575, 1:200) overnight at 4° C., followed by staining with Alexa Fluor 488-conjugated Donkey-anti-Rabbit antibody (A-21206, 1:500) and Alexa Fluor 647-conjugated Streptavidin (Life Technologies, S-32357, 1:500). Images were acquired using a Nikon Eclipse TE200 microscope and NIS-Elements imaging software. The fluorescence intensity of Azide-Biotin-Streptavidin and Laminin staining was quantified using ImageJ (NIH).
To conjugate Biotin-Alkyne onto the azide-labeled acellular lung ECM for Western blot analysis, a small piece of lung tissue was homogenized with gentleMACS Dissociator (Miltenyi Biotec) in PBS, and incubated with 1 ml Biotin-Alkyne click reaction mix for 1 hour at room temperature, followed by extensive washing in PBS. The ECM proteins from the clicked lung tissue was extracted using urea buffer as described below. […] Following BCA quantification, the protein samples were analyzed using SDS-PAGE under reducing condition, transferred to nitrocellulose blotting membranes, and incubated with primary antibodies overnight at 4° C., followed by incubation with HRP-conjugated secondary antibodies for 1 hour at room temperature before autoradiography. […]

[2] = test system: decellularized scaffolds of the rat carotid artery, heart, liver, kidney and skin; assay: In vivo metabolic labeling of ECM of other rat organs/tissues
Description: Male Sprague-Dawley rats (100-125 g, Charles River Laboratories) was administered with metabolic labeling reagents (Ac4GalNAz, Ac4GlcNAz or Ac4ManNAz) (30 mg/day, Click Chemistry Tools) via intraperitoneal injection daily for three days. […] Full-thickness skin grafts were harvested from the abdomen of the animal and decellularized by immersion with agitation in 1% SDS. Decellularized organ and tissue scaffolds were washed sequentially with distilled water, 1% Triton X and PBS.
as §1
For metabolic engineering of organs/tissues in vivo in the rat model, azide-labeled sugars (300 mg/kg body weight in 70% DMSO) were administered through intraperitoneal injection daily. One day after the last azide-labeled sugar administration, organs/tissues were harvested and perfusion decellularized (See FIGS. 1 and 13). The presence of azide labeling in the decellularized scaffolds were evaluated by performing copper-catalyzed click reaction. […]

rat lung ECM = assay: Ex vivo metabolic engineering of rat lung ECM; details: 50 μM, one day, bioreactor perfusion 5 ml/min, Cu(I) catalyst in click with biotin-alkyne
Description: For ex vivo metabolic engineering of the rat lung, the lung was freshly harvested from a male Sprague-Dawley rat (100-125 g). The isolated rat lung was cultured in 100 ml of DMEM/F12 medium containing 10% fetal bovine serum (DMEM/F12-FBS), with the supplementation of Ac4GalNAz (50 μM) or DMSO (0.1%), for 24 hours in a bioreactor under constant rate perfusion (5 ml/min) through the PA, followed by perfusion decellularization as described above.
All samples were fixed with 4% paraformaldehyde (Boston BioProducts), paraffin-embedded, and sectioned at 5-μm thickness. Following deparaffinization, rehydration and antigen retrieval using Antigen Unmasking Solution (Vector Laboratories), the sections were processed for either on-section click reaction or regular histological staining. […] For regular histological staining of biotin and Laminin, the sections were incubated with Rabbit-anti-Laminin antibody (Abcam, ab11575, 1:200) overnight at 4° C., followed by staining with Alexa Fluor 488-conjugated Donkey-anti-Rabbit antibody (A-21206, 1:500) and Alexa Fluor 647-conjugated Streptavidin (Life Technologies, S-32357, 1:500). […] The fluorescence intensity of Azide-Biotin-Streptavidin and Laminin staining was quantified using ImageJ (NIH). […]
The presence of azide labeling in the decellularized scaffolds were evaluated by performing copper-catalyzed click reaction. […]

[3] = test system: acellular porcine lung ECM; assay: Ex vivo metabolic engineering of porcine left lung ECM; details: 50 μM, one day, perfusion 300 ml/min
Description: For ex vivo metabolic engineering of the porcine lung, the left lung was freshly isolated from a male Yorkshire swine (18-20 kg, Tufts University). The isolated porcine left lung was cultured DMEM/F12-FBS medium, with the supplementation of Ac4GalNAz (50 μM) or DMSO (0.1%), for 24 hours in a bioreactor under constant rate perfusion (300 ml/min) through the left main PA. 3 L of medium was initially used and was refreshed once with another 2 L of medium after the initial 16 hours of culture. A parallel oxygenation loop was used during the culture at a flow rate of 150 ml/min. Following culture, the porcine left lung was decellularized by sequential single-pass perfusion through the left main PA with 0.5% SDS, distilled water, 1% Triton X and PBS, adapted from a previously described method (Zhou, H. et al. Bioengineering Human Lung Grafts on Porcine Matrix. Annals of Surgery Publish Ahead of Print (2017)). […] The fluorescence intensity of Azide-Biotin-Streptavidin and Laminin staining was quantified using ImageJ (NIH). […] Following BCA quantification, the protein samples were analyzed using SDS-PAGE under reducing condition, transferred to nitrocellulose blotting membranes, and incubated with primary antibodies overnight at 4° C., followed by incubation with HRP-conjugated secondary antibodies for 1 hour at room temperature before autoradiography. […]

[4] = Copper-free click reaction of DBCO-activated biotin on donor lung during cold preservation; parameters: species or system rat; details: DBCO-activated biotin 100 μM in Perfadex on ice, within one hour
Description: The procedure involves two steps. In the first step, the donor rat was injected with Ac4GalNAz for three days (as described in Example 4). This allowed for metabolic labeling of the donor lung with azido tags. In the second step, the donor lung with azido labeling was preserved in preservation solution (Perfadex) containing DBCO-activated biotin at 100 μM concentration on ice for 1 hour. The lung was then intensively washed with preservation solution (Perfadex) and prepared for transplantation. The lung is fixed for histological staining of the immobilized biologically active molecule (as exemplified by biotin).
DBCO-activated biotin was used a proof-of-principle.

[5] = Click reaction of azide-labeled decellularized rat epigastric flaps with Vancomycin-alkyne; details: Ac4GalNAz-labeled REF versus DMSO control, Vancomycin-alkyne 100 μM click
Description: Vancomycin is made clickable by conjugating an alkyne group to the only primary amine present as described above (see, e.g., FIG. 22, Example 3). The structure of the resulting clickable vancomycin-alkyne was confirmed by LC-MS/MS analysis (FIG. 23). Using the previously described click reaction, Vancomycin was immobilized onto the ECM. Copper-catalyzed click reaction was performed on decellularized rat epigastric flaps by perfusion (0.5 ml/min) using Vancomycin-alkyne (100 μM) and Click-iT® Cell Reaction Buffer Kit (ThermoFisher, Catalog number: C10269) for one hour at room temperature, followed by intensive washing and detection of immobilized vancomycin using a vancomycin-specific antibody.

CC(=O)OC[C@H]1OC(OC(C)=O)[C@H](NC(=O)CN=[N+]=[N-])[C@@H](OC(C)=O)[C@H]1OC(C)=O (stereo partly shown) [Ac4GalNAz, tetraacylated N-azidoacetylgalactosamine]
metabolic labeling efficiency of decellularized rat lung scaffolds ([1]; 3 days of metabolic labeling in donor rats, comparing to Ac4GlcNAz and Ac4ManNAz): superior labeling efficiency | biotin labeling of isolated lung ECM proteins by western blot ([1]; after click conjugation with biotin-alkyne): abundance of biotin labeling | metabolic azide labeling intensity in acellular lungs ([1]; azide-biotin-streptavidin intensity normalized to Laminin, compared with Ac4ManNAz and Ac4GlcNAz): strongest | in vivo metabolic azide labeling of decellularized scaffolds ([2]; rat carotid artery, heart, liver, kidney and skin, three-day intraperitoneal administration): efficient; also recorded: strong and specific ECM labeling | metabolic labeling of decellularized scaffolds of blood vessels and skin flaps ([2]; rat, 3 days of metabolic labeling): efficient metabolic labeling | azide labeling of the lung ECM after ex vivo culture (rat lung ECM): robust covalent azide labeling | azide incorporation into acellular porcine lung ECM after ex vivo culture [3]: specific and covalent azide incorporation

O=C(O)CCCC[C@@H]1SC[C@@H]2NC(=O)N[C@@H]21 [biotin]
immobilization of biotin onto donor lung tissue [4]: high efficiency

CN[C@H](CC(C)C)C(=O)N[C@H]1C(=O)N[C@@H](CC(N)=O)C(=O)N[C@H]2C(=O)N[C@H]3C(=O)N[C@H](C(=O)N[C@H](C(=O)O)c4cc(O)cc(O)c4-c4cc3ccc4O)[C@H](O)c3ccc(c(Cl)c3)Oc3cc2cc(c3O[C@@H]2O[C@H](CO)[C@@H](O)[C@H](O)[C@H]2O[C@H]2C[C@](C)(N)[C@H](O)[C@H](C)O2)Oc2ccc(cc2Cl)[C@H]1O [vancomycin, Vancomycin]
vancomycin staining fluorescence intensity on whole mount REF ([5]; p<0.001): increase | vancomycin staining fluorescence intensity on REF cross-sections ([5]; p<0.05): increase
